Measured values: the supplement of paper PMC10307832

Experiments:
Experiment in all cases: relative viability (nuclei count vs DMSO), 5 days (fraction); higher = more cells survive
CAL-12T = system: CAL-12T
Summary of the method: (§1)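 Values are medians from duplicate plates. Each reflects relative viability, defined as the nuclei count of treated wells over that of vehicle wells. Lung cancer cell lines in 1536-well plates were pin-tool dosed one day after seeding with one drug alone or with a fixed anchor-drug dose plus five library-drug doses (not always all listed) in √10 steps, then fixed, stained and imaged at 4× after 5 days.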

COR-L 105 = system: COR-L 105
Summary of the method: as §1

ChaGo-K-1 = system: ChaGo-K-1
Summary of the method: as §1

EMC-BAC-2 = system: EMC-BAC-2
Summary of the method: as §1

EPLC-272H = system: EPLC-272H
Summary of the method: as §1

HCC-15 = system: HCC-15
Summary of the method: as §1

HCC-78 = system: HCC-78
Summary of the method: as §1

HOP-62 = system: HOP-62
Summary of the method: as §1

LXF-289 = system: LXF-289
Summary of the method: as §1

NCI-H1666 = system: NCI-H1666
Summary of the method: as §1

NCI-H1755 = system: NCI-H1755
Summary of the method: as §1

NCI-H1915 = system: NCI-H1915
Summary of the method: as §1

NCI-H1975 = system: NCI-H1975
Summary of the method: as §1

NCI-H1993 = system: NCI-H1993
Summary of the method: as §1

NCI-H2023 = system: NCI-H2023
Summary of the method: as §1

NCI-H2085 = system: NCI-H2085
Summary of the method: as §1

NCI-H2126 = system: NCI-H2126
Summary of the method: as §1

NCI-H3122 = system: NCI-H3122
Summary of the method: as §1

NCI-H322M = system: NCI-H322M
Summary of the method: as §1

NCI-H358 = system: NCI-H358
Summary of the method: as §1

NCI-H441 = system: NCI-H441
Summary of the method: as §1

NCI-H522 = system: NCI-H522
Summary of the method: as §1

UMC-11 = system: UMC-11
Summary of the method: as §1

For `CC(C)Oc1cc(Nc2nc(N[C@@H](C)c3ccc(F)cn3)ncc2Cl)n[nH]1` [AZ23] + CC(=O)Nc1cccc(-n2c(=O)n(C3CC3)c(=O)c3c(Nc4ccc(I)cc4F)n(C)c(=O)c(C)c32)c1 [Trametinib] (partner 0.02 µM), the relative viability (CAL-12T; first compound 0.03162 µM) was 0.28, the relative viability (CAL-12T; first compound 0.3162 µM) was 0.368 and the relative viability (COR-L 105; first compound 0.01 µM) was 0.432. It also gave a relative viability (COR-L 105; first compound 0.03162 µM) of 0.371, a relative viability (COR-L 105; first compound 0.3162 µM) of 0.478 and a relative viability (ChaGo-K-1; first compound 0.01 µM) of 0.855. The relative viability (ChaGo-K-1; first compound 0.03162 µM) was 0.921, the relative viability (ChaGo-K-1; first compound 0.3162 µM) was 0.979 and the relative viability (EMC-BAC-2; first compound 0.01 µM) was 0.911. It also gave a relative viability (EMC-BAC-2; first compound 0.03162 µM) of 0.912, a relative viability (EMC-BAC-2; first compound 0.3162 µM) of 0.898 and a relative viability (EPLC-272H; first compound 0.03162 µM) of 0.267. The relative viability (EPLC-272H; first compound 0.3162 µM) was 0.274, the relative viability (HCC-15; first compound 0.01 µM) was 0.382 and the relative viability (HCC-15; first compound 0.03162 µM) was 0.413. The relative viability (HCC-15; first compound 0.3162 µM) was 0.243, the relative viability (HCC-78; first compound 0.01 µM) was 0.494 and the relative viability (HCC-78; first compound 0.03162 µM) was 0.669. The relative viability (HCC-78; first compound 0.3162 µM) was 0.418, the relative viability (HOP-62; first compound 0.01 µM) was 0.377 and the relative viability (HOP-62; first compound 0.03162 µM) was 0.382. The relative viability (HOP-62; first compound 0.3162 µM) was 0.356, the relative viability (LXF-289; first compound 0.01 µM) was 0.74 and the relative viability (LXF-289; first compound 0.03162 µM) was 0.671. The relative viability (LXF-289; first compound 0.3162 µM) was 0.615, the relative viability (NCI-H1666; first compound 0.01 µM) was 0.804 and the relative viability (NCI-H1666; first compound 0.03162 µM) was 0.847. The relative viability (NCI-H1666; first compound 0.3162 µM) was 0.903, the relative viability (NCI-H1755; first compound 0.01 µM) was 0.828 and the relative viability (NCI-H1755; first compound 0.03162 µM) was 0.774. It also gave a relative viability (NCI-H1755; first compound 0.3162 µM) of 0.708, a relative viability (NCI-H1915; first compound 0.01 µM) of 0.303 and a relative viability (NCI-H1915; first compound 0.03162 µM) of 0.297. The relative viability (NCI-H1915; first compound 0.3162 µM) was 0.239, the relative viability (NCI-H1975; first compound 0.01 µM) was 0.387 and the relative viability (NCI-H1975; first compound 0.03162 µM) was 0.495. For the same compound, the relative viability (NCI-H1975; first compound 0.3162 µM) was 0.302, the relative viability (NCI-H1993; first compound 0.01 µM) was 0.551 and the relative viability (NCI-H1993; first compound 0.03162 µM) was 0.493. The relative viability (NCI-H1993; first compound 0.3162 µM) was 0.449, the relative viability (NCI-H2023; first compound 0.03162 µM) was 0.602 and the relative viability (NCI-H2023; first compound 0.3162 µM) was 0.48. For the same compound, the relative viability (NCI-H2085; first compound 0.01 µM) was 0.477, the relative viability (NCI-H2085; first compound 0.03162 µM) was 0.746 and the relative viability (NCI-H2085; first compound 0.3162 µM) was 0.538. It also gave a relative viability (NCI-H2126; first compound 0.01 µM) of 0.574, a relative viability (NCI-H2126; first compound 0.03162 µM) of 0.556 and a relative viability (NCI-H2126; first compound 0.3162 µM) of 0.532. The relative viability (NCI-H3122; first compound 0.01 µM) was 0.268, the relative viability (NCI-H3122; first compound 0.03162 µM) was 0.243 and the relative viability (NCI-H3122; first compound 0.3162 µM) was 0.22. It also gave a relative viability (NCI-H322M; first compound 0.01 µM) of 0.454, a relative viability (NCI-H322M; first compound 0.03162 µM) of 0.481 and a relative viability (NCI-H322M; first compound 0.3162 µM) of 0.565. The relative viability (NCI-H358; first compound 0.01 µM) was 0.116, the relative viability (NCI-H358; first compound 0.03162 µM) was 0.137 and the relative viability (NCI-H358; first compound 0.3162 µM) was 0.124. For the same compound, the relative viability (NCI-H441; first compound 0.01 µM) was 0.504, the relative viability (NCI-H441; first compound 0.03162 µM) was 0.433 and the relative viability (NCI-H441; first compound 0.3162 µM) was 0.509. The relative viability (NCI-H522; first compound 0.01 µM) was 0.894, the relative viability (NCI-H522; first compound 0.03162 µM) was 0.796 and the relative viability (NCI-H522; first compound 0.3162 µM) was 0.617. It also gave a relative viability (UMC-11; first compound 0.01 µM) of 0.591, a relative viability (UMC-11; first compound 0.03162 µM) of 0.872 and a relative viability (UMC-11; first compound 0.3162 µM) of 0.729.
`CC(C)Oc1cc(Nc2nc(N[C@@H](C)c3ccc(F)cn3)ncc2Cl)n[nH]1` [AZ23] + Nc1nc2[nH]cc(CCc3ccc(C(=O)N[C@@H](CCC(=O)O)C(=O)O)cc3)c2c(=O)[nH]1 [Pemetrexed] (partner 0.2 µM) gave a relative viability (CAL-12T; first compound 0.03162 µM) of 1.24, a relative viability (CAL-12T; first compound 0.3162 µM) of 1.23 and a relative viability (COR-L 105; first compound 0.01 µM) of 0.902. The relative viability (COR-L 105; first compound 0.03162 µM) was 1.24, the relative viability (COR-L 105; first compound 0.3162 µM) was 1.1 and the relative viability (ChaGo-K-1; first compound 0.01 µM) was 0.24. It also gave a relative viability (ChaGo-K-1; first compound 0.03162 µM) of 0.256, a relative viability (ChaGo-K-1; first compound 0.3162 µM) of 0.269 and a relative viability (EMC-BAC-2; first compound 0.01 µM) of 0.493. It also gave a relative viability (EMC-BAC-2; first compound 0.03162 µM) of 0.46, a relative viability (EMC-BAC-2; first compound 0.3162 µM) of 0.442 and a relative viability (EPLC-272H; first compound 0.03162 µM) of 0.322. It also gave a relative viability (EPLC-272H; first compound 0.3162 µM) of 0.302, a relative viability (HCC-15; first compound 0.01 µM) of 0.204 and a relative viability (HCC-15; first compound 0.03162 µM) of 0.222. For the same compound, the relative viability (HCC-15; first compound 0.3162 µM) was 0.208, the relative viability (HCC-78; first compound 0.01 µM) was 0.976 and the relative viability (HCC-78; first compound 0.03162 µM) was 0.902. It also gave a relative viability (HCC-78; first compound 0.3162 µM) of 0.938, a relative viability (HOP-62; first compound 0.01 µM) of 0.287 and a relative viability (HOP-62; first compound 0.03162 µM) of 0.359. For the same compound, the relative viability (HOP-62; first compound 0.3162 µM) was 0.359, the relative viability (LXF-289; first compound 0.01 µM) was 1.02 and the relative viability (LXF-289; first compound 0.03162 µM) was 0.974. It also gave a relative viability (LXF-289; first compound 0.3162 µM) of 0.99, a relative viability (NCI-H1666; first compound 0.01 µM) of 0.822 and a relative viability (NCI-H1666; first compound 0.03162 µM) of 0.837. It also gave a relative viability (NCI-H1666; first compound 0.3162 µM) of 0.771, a relative viability (NCI-H1755; first compound 0.01 µM) of 0.401 and a relative viability (NCI-H1755; first compound 0.03162 µM) of 0.459. The relative viability (NCI-H1755; first compound 0.3162 µM) was 0.468, the relative viability (NCI-H1915; first compound 0.01 µM) was 0.463 and the relative viability (NCI-H1915; first compound 0.03162 µM) was 0.485. It also gave a relative viability (NCI-H1915; first compound 0.3162 µM) of 0.607, a relative viability (NCI-H1975; first compound 0.01 µM) of 0.272 and a relative viability (NCI-H1975; first compound 0.03162 µM) of 0.296. It also gave a relative viability (NCI-H1975; first compound 0.3162 µM) of 0.312, a relative viability (NCI-H1993; first compound 0.01 µM) of 0.589 and a relative viability (NCI-H1993; first compound 0.03162 µM) of 0.564. For the same compound, the relative viability (NCI-H1993; first compound 0.3162 µM) was 0.563, the relative viability (NCI-H2023; first compound 0.03162 µM) was 0.268 and the relative viability (NCI-H2023; first compound 0.3162 µM) was 0.219. It also gave a relative viability (NCI-H2085; first compound 0.01 µM) of 0.806, a relative viability (NCI-H2085; first compound 0.03162 µM) of 0.907 and a relative viability (NCI-H2085; first compound 0.3162 µM) of 0.994. The relative viability (NCI-H2126; first compound 0.01 µM) was 0.62, the relative viability (NCI-H2126; first compound 0.03162 µM) was 0.695 and the relative viability (NCI-H2126; first compound 0.3162 µM) was 0.679. The relative viability (NCI-H3122; first compound 0.01 µM) was 0.151, the relative viability (NCI-H3122; first compound 0.03162 µM) was 0.199 and the relative viability (NCI-H3122; first compound 0.3162 µM) was 0.195. For the same compound, the relative viability (NCI-H322M; first compound 0.01 µM) was 0.536, the relative viability (NCI-H322M; first compound 0.03162 µM) was 0.617 and the relative viability (NCI-H322M; first compound 0.3162 µM) was 0.689. For the same compound, the relative viability (NCI-H358; first compound 0.01 µM) was 0.151, the relative viability (NCI-H358; first compound 0.03162 µM) was 0.175 and the relative viability (NCI-H358; first compound 0.3162 µM) was 0.17. It also gave a relative viability (NCI-H441; first compound 0.01 µM) of 0.262, a relative viability (NCI-H441; first compound 0.03162 µM) of 0.242 and a relative viability (NCI-H441; first compound 0.3162 µM) of 0.267. It also gave a relative viability (NCI-H522; first compound 0.01 µM) of 1, a relative viability (NCI-H522; first compound 0.03162 µM) of 1 and a relative viability (NCI-H522; first compound 0.3162 µM) of 1.11. It also gave a relative viability (UMC-11; first compound 0.01 µM) of 0.802, a relative viability (UMC-11; first compound 0.03162 µM) of 0.814 and a relative viability (UMC-11; first compound 0.3162 µM) of 0.791.
